Assay [1] has as its target T1, Acetylcholinesterase (Rattus norvegicus, UniProt P37136).
T1 sequence (P37136 whole entry): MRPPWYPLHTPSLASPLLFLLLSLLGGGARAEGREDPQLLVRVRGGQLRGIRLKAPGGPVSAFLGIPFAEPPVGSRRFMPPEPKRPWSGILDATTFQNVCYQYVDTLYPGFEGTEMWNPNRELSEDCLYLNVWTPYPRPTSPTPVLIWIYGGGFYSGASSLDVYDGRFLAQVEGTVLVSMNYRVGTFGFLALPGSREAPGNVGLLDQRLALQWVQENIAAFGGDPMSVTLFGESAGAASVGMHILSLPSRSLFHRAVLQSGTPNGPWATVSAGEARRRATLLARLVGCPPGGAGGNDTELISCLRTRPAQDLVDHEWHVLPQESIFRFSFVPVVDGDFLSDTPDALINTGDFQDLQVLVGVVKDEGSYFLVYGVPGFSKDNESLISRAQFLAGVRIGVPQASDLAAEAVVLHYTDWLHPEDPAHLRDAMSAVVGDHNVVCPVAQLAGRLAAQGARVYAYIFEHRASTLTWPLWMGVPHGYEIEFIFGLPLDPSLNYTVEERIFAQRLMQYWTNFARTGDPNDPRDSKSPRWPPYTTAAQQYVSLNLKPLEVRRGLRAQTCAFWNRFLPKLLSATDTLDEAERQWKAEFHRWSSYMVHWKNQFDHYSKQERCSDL
Briefly: Inhibitory activity against acetylcholinesterase (AChE) from rat brain was determined.

For assay [2], the species on record is Cavia porcellus. Briefly: In vitro gastrointestinal motility enhancing activity expressed as concentration of compound producing 30% potentiation of contractions induced by electrical stimulation in guinea pig. The assay is classed as functional.

Structures are written as SMILES.

As usually defined, the IC50 is the concentration needed to halve the response being measured. Low readings indicate greater potency, high ones weaker potency. The term EC30 denotes the concentration at which the effect reaches the 30% level.

Take `N#CC(C#N)=C1NCCN1CCNCc1ccc(CN2CCCCC2)o1`: the IC50 in assay [1] is 30 nM. In addition, the EC30 in assay [2] came out at 16 nM.

In assay [1], `COc1ccccc1N1CCN(CCNCc2ccc(CN3CCCCC3)o2)C1=C(C#N)C#N` had an IC50 of 66 nM. Also, the EC30 in assay [2] turned out to be 490 nM.

For the compound `COc1cccc(N2CCN(CCNCc3ccc(CN4CCCCC4)o3)C2=C(C#N)C#N)c1`, in assay [1], the IC50 was 14 nM. In addition, the EC30 in assay [2] came out at 14 nM.

`Cc1cccc(N2CCN(CCNCc3ccc(CN4CCCCC4)o3)C2=C(C#N)C#N)c1`: half-maximal inhibition in assay [1] (IC50) was put at 13 nM. Besides, the EC30 in assay [2] was 19 nM.

In assay [1], `COc1ccc(N2CCN(CCNCc3ccc(CN4CCCCC4)o3)C2=C(C#N)C#N)cc1` yielded an IC50 of 19 nM. For the same compound, in assay [2], the EC30 stood at 12 nM.

Regarding `Cc1ccc(N2CCN(CCNCc3ccc(CN4CCCCC4)o3)C2=C(C#N)C#N)cc1`, half-maximal inhibition in assay [1] (IC50) required 2.2 nM. Also, the EC30 in assay [2] came out at 52 nM.

Compound `N#CC(C#N)=C1N(CCNCc2ccc(CN3CCCCC3)o2)CCN1c1ccccc1` showed an IC50 in assay [1] of 14 nM. For the same compound, in assay [2], the EC30 amounted to 10 nM.

For the origin of these results see ChEMBL document CHEMBL1127253, “Synthesis and in vitro gastrointestinal motility enhancing activity of 3-aryl-2-imidazolidinylidene propanedinitrile derivatives” (Bioorg Med Chem Lett, 1994).
